The data set can be described thus: recombinant UMI read abundance after kanamycin selection (control-corrected) (log10(CPM+1)); higher = more efficient recombination; extreme values may be limits of the assay; sequences stand for … in AGTGCAGAGAAAATCGGCCAGTTTTCTCTGCCTGCAGTCCGCATGCCGTGGGACCCCTTGGGTTCTAACCTGTTGCCTAGATTTATGCAGCGGACTGCCTTTCTCCCAAAGTGATAAACCGG…AGGTTGGTTTCACT; site = the 11-nt donor. The procedure, abridged: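 Values, expressed as log10(CPM+1), derive from recombinant UMI counts converted to CPM, averaged across replicates and scaled by control-derived factors. Plating was with IPTG (0.07 mM) plus kanamycin or unselected, two replicates each. The screen pooled donor and donor-binding-loop pairs for the IS621 bridge recombinase in Escherichia coli.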
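Further: IS621 bridge recombinase in Escherichia coli cells against a fixed T5 target plasmid.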

As to “AGTGGGACATGGACCGGTTTTCCCGGTAATCCGTATTTGGC (site AGTGGGACTGC)”, the “recombinant UMI read abundance (log10)” value is 2.85.

Regarding “AGTGTAGCATGGACCGGTTTTCCCGGTAATCCGTATTTGGG (site AGTGTAGCTCC)”, the “recombinant UMI read abundance (log10)” value amounted to 0.00834.

On to “AGTGTGACATGGACCGGTTTTCCCGGTAATCCGTATTTGTA (site AGTGTGACTTA)”, for which the “recombinant UMI read abundance (log10)” value stood at 1.91.

As to “AGTGTGTCATGGACCGGTTTTCCCGGTAATCCGTATTTGAC (site AATGTGTCTGT)”, the “recombinant UMI read abundance (log10)” value worked out at 0.

Turning to “AGTGTGTCATGGACCGGTTTTCCCGGTAATCCGTATTTGAC (site ACTGTGTCTGT)”, the “recombinant UMI read abundance (log10)” value is 0.812.

With “AGTGTGTCATGGACCGGTTTTCCCGGTAATCCGTATTTGAC (site AGTGTGTCTGT)”, the “recombinant UMI read abundance (log10)” value is 1.98.

For “AGTGTGTCATGGACCGGTTTTCCCGGTAATCCGTATTTGAC (site ATTGTGTCTGT)”, the “recombinant UMI read abundance (log10)” value was found to be 0.

In the case of “AGTGTTACATGGACCGGTTTTCCCGGTAATCCGTATTTGCT (site AGTGTTACTAG)”, the “recombinant UMI read abundance (log10)” value is 2.01.

Consider “AGTTAGACATGGACCGGTTTTCCCGGTAATCCGTATTTGCA (site AGGAAGACTTG)”, for which the “recombinant UMI read abundance (log10)” value came to 1.51.

In the case of “AGTTAGACATGGACCGGTTTTCCCGGTAATCCGTATTTGCA (site AGTTAGACTTG)”, the “recombinant UMI read abundance (log10)” value was 1.93.

Regarding “AGTTCAGCATGGACCGGTTTTCCCGGTAATCCGTATTTGGC (site AGTTCAGCTGC)”, the “recombinant UMI read abundance (log10)” value was 0.972.

Take “AGTTCCACATGGACCGGTTTTCCCGGTAATCCGTATTTGGC (site AGTTCCACTGC)”: the “recombinant UMI read abundance (log10)” value was found to be 1.42.

For the sequence “AGTTCCACATGGACCGGTTTTCCCGGTAATCCGTATTTGTA (site AGTTCCACTTA)”, the “recombinant UMI read abundance (log10)” value is 0.751.

On to “AGTTGGTCATGGACCGGTTTTCCCGGTAATCCGTATTTGAA (site AGTTGGTCTTT)”, for which the “recombinant UMI read abundance (log10)” value came out at 0.435.

With “AGTTTCGCATGGACCGGTTTTCCCGGTAATCCGTATTTGGT (site AGTTTCGCTAC)”, the “recombinant UMI read abundance (log10)” value turned out to be 0.564.

For the sequence “ATAAGGCCATGGACCGGTTTTCCCGGTAATCCGTATTTGAT (site ATAAGGCCTAT)”, the “recombinant UMI read abundance (log10)” value was 0.221.

For “ATAAGGCCATGGACCGGTTTTCCCGGTAATCCGTATTTGAT (site ATAAGGCCTCT)”, the “recombinant UMI read abundance (log10)” value amounted to 0.00711.

With “ATAAGGCCATGGACCGGTTTTCCCGGTAATCCGTATTTGAT (site ATAAGGCCTGT)”, the “recombinant UMI read abundance (log10)” value was 0.

On to “ATAAGGCCATGGACCGGTTTTCCCGGTAATCCGTATTTGAT (site ATAAGGCCTTT)”, for which the “recombinant UMI read abundance (log10)” value amounted to 0.0201.

On to “ATAATGCCATGGACCGGTTTTCCCGGTAATCCGTATTTGAC (site ATAAAGCCTGT)”, for which the “recombinant UMI read abundance (log10)” value was 0.589.

As to “ATAATGCCATGGACCGGTTTTCCCGGTAATCCGTATTTGAC (site ATAACGCCTGT)”, the “recombinant UMI read abundance (log10)” value came out at 0.155.

For the sequence “ATAATGCCATGGACCGGTTTTCCCGGTAATCCGTATTTGAC (site ATAAGGCCTGT)”, the “recombinant UMI read abundance (log10)” value came to 0.

“ATAATGCCATGGACCGGTTTTCCCGGTAATCCGTATTTGAC (site ATAATGCCTGT)”: the “recombinant UMI read abundance (log10)” value was determined as 2.03.

As for “ATACCCACATGGACCGGTTTTCCCGGTAATCCGTATTTGAC (site ATACCCACTGT)”, the “recombinant UMI read abundance (log10)” value came to 2.65.

Consider “ATACGCACATGGACCGGTTTTCCCGGTAATCCGTATTTGAA (site ATACGCACTTT)”, for which the “recombinant UMI read abundance (log10)” value was 1.55.

Regarding “ATACGCACATGGACCGGTTTTCCCGGTAATCCGTATTTGTT (site ATACGCACTAA)”, the “recombinant UMI read abundance (log10)” value turned out to be 1.29.

With “ATACTATCATGGACCGGTTTTCCCGGTAATCCGTATTTGAC (site ATACTATCTGT)”, the “recombinant UMI read abundance (log10)” value was found to be 3.39.

“ATACTATCATGGACCGGTTTTCCCGGTAATCCGTATTTGAC (site CTAGTATCTGT)”: the “recombinant UMI read abundance (log10)” value is 0.

Regarding “ATAGGCCCATGGACCGGTTTTCCCGGTAATCCGTATTTGAA (site ATAGGCCCTTT)”, the “recombinant UMI read abundance (log10)” value was 0.215.

On to “ATAGGGCCATGGACCGGTTTTCCCGGTAATCCGTATTTGAC (site ATAAGGCCTGT)”, for which the “recombinant UMI read abundance (log10)” value came to 1.44.

On to “ATAGGGCCATGGACCGGTTTTCCCGGTAATCCGTATTTGAC (site ATACGGCCTGT)”, for which the “recombinant UMI read abundance (log10)” value came to 0.

As to “ATAGGGCCATGGACCGGTTTTCCCGGTAATCCGTATTTGAC (site ATAGGGCCTGT)”, the “recombinant UMI read abundance (log10)” value stood at 0.

On to “ATAGGGCCATGGACCGGTTTTCCCGGTAATCCGTATTTGAC (site ATATGGCCTGT)”, for which the “recombinant UMI read abundance (log10)” value was 0.

With “ATAGGTCCATGGACCGGTTTTCCCGGTAATCCGTATTTGTT (site ATAGGTCCTAA)”, the “recombinant UMI read abundance (log10)” value turned out to be 0.95.

The record behind these values is the supplement of paper PMC11208160.
